Results taken from PubChem BioAssay AID330 (DTP/NCI, 2004).
Several values for one entry are separate records, joined by “and”; a condition that tells them apart may be missing. Equal values may be shown once. Inconclusive results and toxic doses are left out. The calls were made as follows: active = survival T/C of 150% or more; inactive = T/C below 125% in these data.

System: P388 leukemia ip, CD2F1 mice, survival T/C
Assay: NCI In Vivo Anticancer Drug Screen. Data for tumor model P388 Leukemia (intraperitoneal) in CD2F1 (CDF1) mice
Details: endpoint: median survival time, higher = longer survival
In short: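 Mice carrying the transplanted tumor received test compound or vehicle. Survival was recorded in each group, and the value is the treated-group measurement divided by that of the vehicle-treated control group.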

[1] = dose: 50.0 mg/kg/injection, schedule: Q01DX005 (ip), vehicle: saline with Tween-80
[2] = dose: 100.0 mg/kg/injection, schedule: Q01DX005 (ip), vehicle: saline with Tween-80
[3] = dose: 50.0 mg/kg/injection, schedule: Q01DX005 (ip), vehicle: Klucel (hydroxypropylcellulose) (HPC)
[4] = dose: 100.0 mg/kg/injection, schedule: Q01DX005 (ip), vehicle: Klucel (hydroxypropylcellulose) (HPC)
[5] = dose: 200.0 mg/kg/injection, schedule: Q01DX005 (ip), vehicle: Klucel (hydroxypropylcellulose) (HPC)
[6] = dose: 100.0 mg/kg/injection, schedule: Q01DX001 (ip), vehicle: Klucel (hydroxypropylcellulose) (HPC)
[7] = dose: 200.0 mg/kg/injection, schedule: Q01DX001 (ip), vehicle: Klucel (hydroxypropylcellulose) (HPC)
[8] = dose: 400.0 mg/kg/injection, schedule: Q01DX001 (ip), vehicle: Klucel (hydroxypropylcellulose) (HPC)
[9] = dose: 200.0 mg/kg/injection, schedule: Q01DX005 (ip), vehicle: saline with Tween-80
[10] = dose: 50.0 mg/kg/injection, schedule: Q01DX009 (ip), vehicle: saline
[11] = dose: 100.0 mg/kg/injection, schedule: Q01DX009 (ip), vehicle: saline
[12] = dose: 200.0 mg/kg/injection, schedule: Q01DX009 (ip), vehicle: saline

Measured: T/C

COc1cc(/C=C/c2nnc3c4ccccc4cnn23)cc(OC)c1OC
inactive: dose: 12.5 mg/kg/injection, schedule: Q01DX009 (ip), vehicle: saline with Tween-80 99 % of control | dose: 25.0 mg/kg/injection, schedule: Q01DX009 (ip), vehicle: saline with Tween-80 100 % of control | dose: 50.0 mg/kg/injection, schedule: Q01DX009 (ip), vehicle: saline with Tween-80 101 % of control and 91 % of control | dose: 100.0 mg/kg/injection, schedule: Q01DX009 (ip), vehicle: saline with Tween-80 93 % of control | dose: 200.0 mg/kg/injection, schedule: Q01DX009 (ip), vehicle: saline with Tween-80 94 % of control

COc1cccc(C(=O)CC(c2ccccc2)C(C)(C)[N+](=O)[O-])c1 (stereo not drawn)
inactive: dose: 25.0 mg/kg/injection, schedule: Q01DX005 (ip), vehicle: saline with Tween-80 105 % of control | [1] 99 % of control | [2] 99 % of control

CCC1(C)c2[nH]c3ccccc3c2C(=O)NN1C(C)=O (stereo not drawn)
inactive: [3] 104 % of control | [4] 107 % of control | [5] 112 % of control

CC(C)COP(=O)([O-])OCC[N+](C)(C)C
inactive: [6] 104 % of control | [7] 98 % of control | [8] 100 % of control

CCOC(=O)c1cnc2ncccn12
inactive: dose: 50.0 mg/kg/injection, schedule: Q01DX009 (ip), vehicle: Klucel (hydroxypropylcellulose) (HPC) 99 % of control | dose: 100.0 mg/kg/injection, schedule: Q01DX009 (ip), vehicle: Klucel (hydroxypropylcellulose) (HPC) 101 % of control | dose: 200.0 mg/kg/injection, schedule: Q01DX009 (ip), vehicle: Klucel (hydroxypropylcellulose) (HPC) 91 % of control

Cc1nc(Nc2ccccc2)c2c(C)c(Cc3ccccc3)[nH]c2n1
inactive: [3] 89 % of control | [4] 86 % of control | [5] 87 % of control

O=S(=O)(Nc1ccnn1-c1ccccc1)c1ccc(NC(=S)Nc2ccccc2)cc1
inactive: [1] 96 % of control | [2] 93 % of control | [9] 91 % of control

COC1=C(OC)C(=O)C(COC2CCCCO2)=CC1=O (stereo not drawn)
inactive: dose: 7.5 mg/kg/injection, schedule: Q01DX005 (ip), vehicle: saline with Tween-80 98 % of control | dose: 15.0 mg/kg/injection, schedule: Q01DX005 (ip), vehicle: saline with Tween-80 103 % of control

O=C1c2ccccc2C(=O)c2c(O)c(CBr)c(CBr)c(O)c21
inactive: [1] 96 % of control | [2] 104 % of control | [9] 95 % of control

Nc1nnnn1CCCl
inactive: [1] 94 % of control | [2] 103 % of control | [9] 106 % of control

CN1OC(=O)OC2(CCCCC2)C1=O
inactive: dose: 50.0 mg/kg/injection, schedule: Q01DX005 (ip), vehicle: saline 96 % of control | dose: 100.0 mg/kg/injection, schedule: Q01DX005 (ip), vehicle: saline 99 % of control | dose: 200.0 mg/kg/injection, schedule: Q01DX005 (ip), vehicle: saline 96 % of control

O=C(Oc1ccc(OC(=O)c2ccc([N+](=O)[O-])cc2)cc1)c1ccccc1
inactive: dose: 50.0 mg/kg/injection, schedule: Q04DX003 (ip), vehicle: saline 101 % of control | [6] 95 % of control | dose: 100.0 mg/kg/injection, schedule: Q04DX003 (ip), vehicle: saline 95 % of control | [7] 95 % of control | dose: 200.0 mg/kg/injection, schedule: Q04DX003 (ip), vehicle: saline 102 % of control | [8] 101 % of control | dose: 400.0 mg/kg/injection, schedule: Q04DX003 (ip), vehicle: saline 96 % of control

COC(=O)c1cc(NC(=O)Oc2ccccn2)cc(C(=O)OC)c1
inactive: dose: 50.0 mg/kg/injection, schedule: Q01DX009 (ip), vehicle: olive oil, sesame oil, peanut oil 98 % of control | dose: 100.0 mg/kg/injection, schedule: Q01DX009 (ip), vehicle: olive oil, sesame oil, peanut oil 97 % of control | dose: 200.0 mg/kg/injection, schedule: Q01DX009 (ip), vehicle: olive oil, sesame oil, peanut oil 99 % of control

O=C1CC(=O)C(Br)=C1Br
inactive: dose: 0.37 mg/kg/injection, schedule: Q01DX009 (ip), vehicle: saline 109 % of control | dose: 0.75 mg/kg/injection, schedule: Q01DX009 (ip), vehicle: saline 100 % of control | dose: 0.75 mg/kg/injection, schedule: Q04DX003 (ip), vehicle: saline with Tween-80 95 % of control | dose: 1.5 mg/kg/injection, schedule: Q01DX009 (ip), vehicle: saline 100 % of control

OCC(O)CO
inactive: dose: 0.5 % in 0.5 ml injection vol, schedule: Q01DX009 (ip), vehicle: water 100 % of control | dose: 1.0 % in 0.5 ml injection vol, schedule: Q01DX009 (ip), vehicle: water 93 % of control | dose: 2.0 % in 0.5 ml injection vol, schedule: Q01DX009 (ip), vehicle: water 99 % of control and 105 % of control | dose: 4.0 % in 0.5 ml injection vol, schedule: Q01DX009 (ip), vehicle: water 105 % of control and 111 % of control | dose: 8.0 % in 0.5 ml injection vol, schedule: Q01DX009 (ip), vehicle: water 104 % of control and 94 % of control | dose: 16.0 % in 0.5 ml injection vol, schedule: Q01DX009 (ip), vehicle: water 101 % of control and 102 % of control

CC(=O)OC(C)C1C2=C(C(=O)CC1(C)O)C(=O)c1c(ccc(-c3ccc4c(c3O)C(=O)C3=C(C4=O)C(C(C)OC(C)=O)C(C)(O)CC3=O)c1O)C2=O (stereo not drawn)
inactive: dose: 3.13 mg/kg/injection, schedule: Q01DX009 (ip), vehicle: saline with Tween-80 122 % of control | dose: 6.25 mg/kg/injection, schedule: Q01DX009 (ip), vehicle: saline with Tween-80 119 % of control

C=CCSC(C)=O
inactive: dose: 30.0 mg/kg/injection, schedule: Q01DX005 (ip), vehicle: saline with Tween-80 98 % of control | dose: 60.0 mg/kg/injection, schedule: Q01DX005 (ip), vehicle: saline with Tween-80 100 % of control | dose: 120.0 mg/kg/injection, schedule: Q01DX005 (ip), vehicle: saline with Tween-80 99 % of control

CC(C)(C)c1ccc(NC(=O)c2ccccc2N)cc1
inactive: [1] 101 % of control | [2] 97 % of control | [9] 92 % of control

C=C1C(C#N)=C(SC)SC(=S)N1CC
inactive: dose: 50.0 mg/kg/injection, schedule: Q01DX001 (ip), vehicle: saline with Tween-80 95 % of control | dose: 100.0 mg/kg/injection, schedule: Q01DX001 (ip), vehicle: saline with Tween-80 92 % of control | dose: 200.0 mg/kg/injection, schedule: Q01DX001 (ip), vehicle: saline with Tween-80 93 % of control | dose: 400.0 mg/kg/injection, schedule: Q01DX001 (ip), vehicle: saline with Tween-80 95 % of control

OCCc1ccccn1
inactive: [10] 102 % of control | [11] 111 % of control | [12] 102 % of control | dose: 400.0 mg/kg/injection, schedule: Q01DX009 (ip), vehicle: saline 102 % of control

CCCCCSSSCCCCC
inactive: [10] 101 % of control | [11] 96 % of control | [12] 104 % of control
